Our source for the melting point values is a melting point compilation (Tetko et al.; mined from patent text by program, amines drawn as free bases though some values may be those of a salt).

SMILES strings stand for the structures.

The term melting point denotes the temperature of the solid-liquid transition. Turning to `COc1cc(Nc2c(C#N)cnc3cc(-c4csc(C=O)c4)sc23)c(Cl)cc1Cl`, the melting point was 259 to 261 °C.

`N#CC1=C(n2cccc2)Oc2c(ccc3ccccc23)C1c1cccc([N+](=O)[O-])c1` (stereo not given) gave a melting point of 184 to 185 °C.

In turn, `Cc1oc(-c2ccc3ccccc3c2)nc1COc1ccc(/C=C/C=O)cc1` came in with a melting point of 179 to 180 °C.

Regarding `N#Cc1cc2c(c(C(=O)O)c1-c1ccccc1)NCCC2C(=O)O` (stereo not given), the melting point fell in the range of 231 to 232 °C.

In turn, `Fc1cccc(F)c1-c1cnc(-c2ccc(-c3ccc(OC(F)(F)F)cc3)cc2)nn1` came in with a melting point of 199 to 202 °C.

With `O=S(=O)(CC=C1CCC1)c1ccccc1`, the melting point lay in the range of 76 to 78 °C.

`COc1c(N2CC(C)C(C)(N)C2)c(F)cc2c(=O)c(C(=O)O)cn(C3CC3F)c12` (stereo not given) displayed a melting point of 195 to 196 °C.

The compound `COC1(c2cc(F)cc(Sc3ccc4c(c3)CCC(=S)N4C)c2)CCOCC1` displayed a melting point of 134 °C.

Compound `CNC(=S)NN=C(CCCCl)c1cccnc1` had a melting point of 100 to 102 °C.

For the compound `Cc1oc(-c2ccccc2)nc1CCC(=O)c1ccc(CC2OC(=O)NC2=O)cc1` (stereo not given), the melting point lay within 198 to 200 °C.

On to `CCc1ccc(/C=C/c2nc(COc3ccc(CCCCn4ccnc4CCO)cc3)co2)cc1`, for which the melting point is 94 to 95 °C.

As to `COc1cc2c(cc1Br)C1=C(c3cccs3)C3CSCCN(C(C)(C)C)C(=O)C3N1CC2` (stereo not given), the melting point lay within 233 to 235 °C.

As for `c1cc2c(Nc3ccc4[nH]ncc4c3)ncnc2cn1`, the melting point is 258 °C.

As to `Cc1cnc2c(NC(=O)c3ccccc3[N+](=O)[O-])cccc2c1-n1ccnc1`, the melting point was in the range of 199 to 204 °C.

`CC(C)(C)C(=O)c1ccc(C(C)(C)C(=O)O)cc1` returned a melting point of 128 to 130 °C.

In turn, `CC(C)=CCCC(C)=CCCC(C)=CC=CC(C)=CC(=O)O` came in with a melting point of 78.4 °C.

For the compound `CCOC(=O)c1ccc(CCc2coc(N)c2C#N)cc1`, the melting point was 195 to 197 °C.

For the compound `COc1ccc2ccc(OC)c3c2c1CCC3CCNC(C)=O` (stereo not given), the melting point came to 125 °C.

For the compound `O=C(O)c1cnn(-c2ccc(Cl)cc2Cl)c1C(F)(F)F`, the melting point lay in the range of 154 to 155 °C.

In the case of `COc1cc2c(cc1OC)CCC(C(=N)NO)=C2`, the melting point was in the range of 202 to 205 °C.

The compound `O=C(O)c1c[nH]c2nc(Cl)ccc2c1=O` showed a melting point of 271 to 273 °C.

`CN1CCC(c2cccc3c2C[C@H](NC(=O)c2ccc(C(F)(F)F)cc2)CC3)CC1` showed a melting point of 163 to 166 °C.

Consider `CCOc1ccccc1C1=NN(C(=O)c2cccnc2)CC1`, for which the melting point is 155 to 157 °C.

Take `OCC1OC(n2cnc3c(NCCCCC(c4ccccc4)c4ccccc4)ncnc32)C(O)C1O` (stereo not given): the melting point was 78 to 82 °C.

Turning to `CSC[C@H](C)NC(=O)c1c(I)cccc1C(=O)Nc1ccc(Cc2cc(C(F)(F)F)cc(C(F)(F)F)c2)cc1C`, the melting point was 85 to 94 °C.

In turn, `O=C(C=Cc1ccc(-c2ccc(Cl)cc2)cc1)Nc1ccc(CN2CCCCC2)cc1` showed a melting point of 265 to 270 °C.

The compound `NCCNc1cccc2cn[nH]c12` gave a melting point of 166 to 168 °C.

On to `NC(=S)C=C(N)CCOCc1ccccc1`, for which the melting point was 93 to 94 °C.

`C=Cc1ccc([Si](C)(C)C)c(C(=O)NCC)c1Cl` displayed a melting point of 127 to 128 °C.

As to `CC(C)(C)OC(=O)Nc1ccc(N2CCNCC2)cc1`, the melting point was 155 to 157 °C.

For `O=C(O)C(CCc1ccccc1)NC1CCc2ccccc2NC1=O` (stereo not given), the melting point fell in the range of 173 to 175 °C.

Compound `CC(=O)Nc1ccc(-c2cc(C(C)(C)C)c(O)c(C(C)(C)C)c2)cc1` displayed a melting point of 173 to 174 °C.

Consider `N#Cc1cccc(-c2ccc3c(Cl)c[nH]c(=O)c3c2)c1`, for which the melting point was greater than 300 °C.

In turn, `O=CNc1ccc(S(=O)(=O)C[N+](=O)[O-])cc1` displayed a melting point of 192 to 193 °C.

As for `O=Cc1ccc(CCCCCCCC(=O)O)o1`, the melting point is 70 to 72 °C.

`COc1cccc2nc(-c3ccc(OCCO)c(-c4ccc(S(C)(=O)=O)cc4)n3)[nH]c(=O)c12`: the melting point is greater than 300 °C.

`Nc1ccn(C2CC(O)C(CO)O2)c(=O)c1F` (stereo not given) had a melting point of 161 to 163 °C.

Regarding `N#Cc1ccc(OCCCCCOc2cccc(-c3cc4ccc(C#N)cc4o3)c2)cc1`, the melting point was in the range of 138 to 140 °C.

In turn, `O=c1nc(N2CCN(c3ccccc3F)CC2)sc2c([N+](=O)[O-])cc(C(F)(F)F)cc12` yielded a melting point of 164 to 168 °C.

On to `O=S(=O)(NCCCCOc1ccc(-n2ccnc2)cc1)c1ccc(I)cc1`, for which the melting point is 150 to 152 °C.

Regarding `CCc1nc(C)c(/C=C(\NC(=O)c2ccc(C(=O)NCc3cccc(O)c3)cc2Cl)C(=O)O)s1`, the melting point is greater than 200 °C.

Consider `Nc1ccccc1C(=O)Nc1ccc(Br)cc1`, for which the melting point is 139 to 144 °C.

The compound `COc1cc(OC)c2c(=O)cc(C(C)(C)C(N)=O)oc2c1` returned a melting point of 217 to 219 °C.

As to `CC(=O)OC(CCCN1CCN(c2ncc(F)cn2)CC1)c1ccc(F)cc1` (stereo not given), the melting point was 76 to 77 °C.

In turn, `O=C(O)c1ccc2c(COc3cccnc3)csc2c1` yielded a melting point of 248 to 250 °C.

`O=C1Nc2ccccc2N(C(=O)CN2CCCC(CN3CCCCC3)C2)c2ccccc21` (stereo not given) returned a melting point of 150 to 152 °C.

In the case of `CC(=O)c1ccc(OC2CCN(C(=O)OC(C)(C)C)CC2)cc1F`, the melting point was 72 to 73 °C.

`OC1CCCc2nc3ccccc3c(NCc3cccc(C(F)(F)F)c3)c21` (stereo not given) yielded a melting point of 154 to 155 °C.

Compound `COc1ccc2c(c1)C(=O)C(=O)N2CCN(C(C)C)C(C)C` yielded a melting point of 81 to 82.5 °C.

The compound `CN(C)c1ccc(CCc2ccc3c(=O)[nH]ncc3c2)cc1` displayed a melting point of 257 to 259 °C.

In turn, `OC1CSC(Oc2cncc(-c3ccc(F)cc3F)c2)C(O)C1O` (stereo not given) registered a melting point of 221 °C.

In the case of `CC(C)(C)OC(=O)Nc1ccc(-c2cccc(F)c2)cc1NC(=O)CC(=O)c1cccc(C#N)c1`, the melting point was in the range of 148 to 150 °C.

Turning to `O=C(O)C(Sc1nc2ccc(Cl)nc2s1)c1ccccc1` (stereo not given), the melting point fell in the range of 175 to 177 °C.

In turn, `CCO[C@@H](Cc1ccc(OCCc2nc(-c3ccc(C(F)(F)F)cc3)oc2C)c2ccccc12)C(=O)O` registered a melting point of 153 to 155 °C.

Compound `CC1=C(C(=O)c2ccccc2F)C(=O)C2C=CC=CC2C1=O` (stereo not given) displayed a melting point of 157 to 158 °C.

For `O=S(=O)(C(/C=C/c1ccc(Cl)cc1)c1c(F)c(F)c(F)c(F)c1F)C(/C=C/c1ccc(Cl)cc1)c1c(F)c(F)c(F)c(F)c1F` (stereo not given), the melting point is 154 to 155 °C.

For the compound `Cc1nc2sc(S(=O)(=O)Cl)cc2c(=O)n1-c1ccccc1Cl`, the melting point fell in the range of 172 to 174 °C.

With `COC(=O)CCC(C#N)(CCC(=O)OC)c1cccc(Cl)c1`, the melting point lay in the range of 78.5 to 80 °C.

`CN1C(=O)CCCC1(O)C=Cc1ccccc1` (stereo not given) displayed a melting point of 108 to 112 °C.

Compound `O=C(O)CCCCCCCCCCCCCCCCCCCO` gave a melting point of 86 °C.

The compound `CNc1nc(Cl)cc(Cl)n1` gave a melting point of 157 to 158 °C.

On to `NC(=S)NN1CCc2cc(Cl)ccc21`, for which the melting point lay within 199 to 200 °C.

For `Cc1nc(CC2OC(CO)C(O)C2O)n2nc(Cl)ccc12` (stereo not given), the melting point fell in the range of 171 to 174 °C.

`COc1ccc(S(=O)(=O)Nc2ccccc2NC(=O)c2cccnc2Cl)cc1` showed a melting point of 133 to 135 °C.

The compound `Cc1ccc(S(=O)(=O)OC[C@H]2COc3ccc(Cl)cc3O2)cc1` had a melting point of 90 to 91 °C.

Compound `Cc1cc(CNC2CC2)cc(C)c1Oc1ccc([N+](=O)[O-])c(Nc2ccc(C#N)cc2)n1` displayed a melting point of 175 to 177 °C.

In turn, `CCCCN1Cc2c([nH]c3ccccc23)C1=O` registered a melting point of 215 to 218 °C.

`COc1cc(/C(C#N)=C/c2ccc(Cl)c([N+](=O)[O-])c2)cc(OC)c1OC` showed a melting point of 198 to 199 °C.

As for `CCOC(=O)c1c(N2CCN(C(=O)c3cccs3)CC2)c2sccc2n(CC(=O)c2ccccc2)c1=O`, the melting point is 240 °C.

Compound `CC1CCN(c2ccc(Nc3ncc4c(n3)S/C(=C/c3ccc([N+](=O)[O-])cc3)C(=O)N4)cc2)CC1` displayed a melting point of 280 to 282 °C.

As for `COc1ccc(N2CCOCC2)c2sc(-c3nc(-c4ccccc4)c[nH]3)nc12`, the melting point lay in the range of 226 to 233 °C.

As for `O=C(Cl)Cc1ccccc1NS(=O)(=O)C(F)(F)F`, the melting point lay within 94 to 95 °C.

In turn, `O=C(N[C@H](Cc1ccc(C(F)(F)F)cc1)[C@@H](O)c1cccc(F)c1)c1cccc2c1C=CCCC2` (racemic) displayed a melting point of 151 to 152 °C.

Compound `Cc1cc(C)cc(-c2cccc3ccccc23)c1` displayed a melting point of 68 to 70 °C.

In turn, `OC12N=C(c3ccccc3)SC1Cc1cc(Cl)ccc12` (stereo not given) came in with a melting point of 155 °C.

Consider `CC1CC(C)(C)C(CNc2ccnc3cc(Cl)ccc23)C1N` (stereo not given), for which the melting point is greater than 250 °C.

With `CCC(C)(Cc1c[nH]c2ccccc12)NC=O` (stereo not given), the melting point was in the range of 122 to 124 °C.

Compound `COC(=O)CNCc1ccc(OCc2ccccc2)cc1` registered a melting point of 57 to 58 °C.

`COc1cccc(C=O)c1OS(=O)(=O)c1ccccc1` showed a melting point of 120 to 122 °C.

Turning to `C#C[C@]1(C)CCc2c(C)c(O)c(C)c(C)c2O1`, the melting point lay in the range of 81 to 83 °C.

Compound `CCOC(OCC)c1ccccc1CN(CCn1ccc2oc(C)cc2c1=O)Cc1ccc2c(c1)N(C)C(=O)C(C)(C)C(=O)N2CC` returned a melting point of 138 to 139 °C.

As for `C=CCC1=C(Cl)C(=O)c2ccccc2C1=O`, the melting point is 69 to 70 °C.

As to `CN(c1ccc(-c2ccc(C(=N)N)cc2)nn1)[C@H]1CC[C@H](C(=O)O)CC1`, the melting point was 308 to 310 °C.

In the case of `Clc1ccc(N2C3CCC2CN(Cc2ccccc2)C3)cc1`, the melting point lay within 115 to 117 °C.

As for `N#Cc1cc([N+](=O)[O-])ccc1N1CCC(=O)CC1`, the melting point is 109 °C.

Regarding `N#Cc1ncccc1CCc1cccc(Cl)c1`, the melting point fell in the range of 72 to 73 °C.

`BrCc1noc2cc3ccccc3cc12` returned a melting point of 111 to 113 °C.

`COc1cc(OC)cc(-c2cc(=O)c3ccc(OCC(O)CN4CCN(c5ccccc5)CC4)cc3o2)c1` (stereo not given) gave a melting point of 195 to 196 °C.

As to `N#CCCN1CCN(P(=S)(N2CCN(CCC#N)CC2)N2CCN(CCC#N)CC2)CC1`, the melting point stood at 122 °C.

On to `Cc1c(Cl)nc(Cl)nc1Cl`, for which the melting point was in the range of 67 to 68 °C.
